Assay results: ChEMBL document CHEMBL5543130, “Design, Synthesis, and In Vivo Evaluation of Isosteviol Derivatives as New SIRT3 Activators with Highly Potent Cardioprotective Effects” (J Med Chem, 2024)
Values after ≈ are worked out from the molar mass of the structure shown. Active and inactive are the calls of the source. No cut-off for these calls is given here.

Key:
Danio rerio [1] = assay: Cardioprotective activity against doxorubicin-induced Zebrafish cardiomyopathy model at 5 to 15 uM fertilized for 24 hrs followed by compound administration for 72 hrs and measured at 96 hrs post fertilization by inverted fluorescence microscopic analysis; format: functional, organism-based; settings: dose 5-15 µM
Danio rerio [2] = assay: Cardioprotective activity against doxorubicin-induced Zebrafish cardiomyopathy model assessed as survival rate at 5 uM fertilized for 24 hrs followed by compound administration for 72 hrs and measured at 96 hrs post fertilization by inverted fluorescence microscopic analysis; format: functional; settings: for survival at 5 µM: Danio rerio
Danio rerio [3] = species on record: Danio rerio; assay: Cardioprotective activity against doxorubicin-induced Tg(cmlc2: GFP) Zebrafish assessed as reduction in Anp mRNA level measured at 72 hrs post fertilization by qPCR analysis; format: functional, organism-based; settings: dose <= 5.0 µM
Danio rerio [4] = species on record: Danio rerio; assay: Cardioprotective activity against doxorubicin-induced Tg(cmlc2: GFP) Zebrafish assessed as restoration of normal heart structure at 5 uM measured at 72 hrs post fertilization; format: functional, organism-based
Danio rerio [5] = assay: Cardioprotective activity against doxorubicin-induced Tg(cmlc2: GFP) Zebrafish assessed as […] at 5 uM measured at 72 hrs post fertilization; format: functional, organism-based
Danio rerio [6] = species on record: Danio rerio; assay: Cardioprotective activity against doxorubicin-induced Tg(cmlc2: GFP) Zebrafish assessed as reduction in cTnT mRNA level measured at 72 hrs post fertilization by qPCR analysis; format: functional, organism-based; settings: dose <= 5.0 µM
[7] = Toxicity in zebrafish embryos assessed as survival at upto 40 uM fertilized for 24 hrs followed by compound administration for 72 hrs and measured at 96 hrs post fertilization; design: species or system Danio rerio; settings: in vivo
Danio rerio [8] = species on record: Danio rerio; assay: Cardioprotective activity against doxorubicin-induced Tg(cmlc2: GFP) Zebrafish assessed as reduction in Bnp mRNA level measured at 72 hrs post fertilization by qPCR analysis; format: functional, organism-based
Danio rerio [9] = assay: Cardioprotective activity against doxorubicin-induced Zebrafish cardiomyopathy model assessed as survival rate at 15 uM fertilized for 24 hrs followed by compound administration for 72 hrs and measured at 96 hrs post fertilization by inverted fluorescence microscopic analysis; format: functional
Danio rerio [10] = assay: Cardioprotective activity against doxorubicin-induced Zebrafish cardiomyopathy model assessed as survival rate at 5 to 15 uM fertilized for 24 hrs followed by compound administration for 72 hrs and measured at 96 hrs post fertilization by inverted fluorescence microscopic analysis; format: functional; settings: dose 5-15 µM
[11] = Water solubility of the compound measured for 24 hrs by HPLC analysis; format: physicochemical

Question: With `CC1CCCC(C(=O)O)C1C(=O)N1CCN(C(=O)[C@]2(C)CCC[C@@]3(C)[C@@H]4CC[C@@]5(C)C[C@]4(CC[C@@H]32)CC5=O)CC1` (some centres undefined) as the compound, how does the Activity (Danio rerio [1]) read?
Answer: Active

Question: With `CC(CC(=O)O)C(=O)N1CCN(C(=O)[C@]2(C)CCC[C@@]3(C)[C@@H]4CC[C@@]5(C)C[C@]4(CC[C@@H]32)CC5=O)CC1` (some centres undefined) as the compound, how does the Activity (Danio rerio [1]) read?
Answer: Active

Question: With `C[C@@]12CC[C@@H]3[C@@](CC[C@H]4[C@@]3(C)CCC[C@@]4(C)C(=O)N3CCNCC3)(CC1=O)C2` as the compound, how does the Activity (Danio rerio [1]) read?
Answer: Active

Question: Which results are given for `C[C@@]12CC[C@@H]3[C@@](CC[C@H]4[C@@]3(C)CCC[C@@]4(C)C(=O)N3CCN(C(=O)C4=C(C(=O)O)CCCC4)CC3)(CC1=O)C2`?
Answer: Activity (Danio rerio [2]): 85%; Activity (Danio rerio [3]): Dose-Dependent Effect; Activity (Danio rerio [4]): Active; Activity (Danio rerio [5]): Active; Activity (Danio rerio [6]): Dose-Dependent Effect; Activity [7]: Non-Toxic; Activity (Danio rerio [8]): Dose-Dependent Effect

Question: Which Activity (Danio rerio [1]) does the source give for `C[C@@]12CC[C@@H]3[C@@](CC[C@H]4[C@@]3(C)CCC[C@@]4(C)C(=O)N3CCN(C(=O)/C=C/C(=O)O)CC3)(CC1=O)C2` here?
Answer: Active

Question: What about the survival at 15 µM (Danio rerio [9]) of the same compound?
Answer: 50%

Question: For `COc1cccc(C(=O)N2CCN(C(=O)[C@]3(C)CCC[C@@]4(C)[C@@H]5CC[C@@]6(C)C[C@]5(CC[C@@H]43)CC6=O)CC2)c1OC`, which Survival (Danio rerio [10]) is on record?
Answer: 86%

Question: For `C[C@@]12CC[C@@H]3[C@@](CC[C@H]4[C@@]3(C)CCC[C@@]4(C)C(=O)N3CCN(C(=O)COCC(=O)O)CC3)(CC1=O)C2`, which Activity (Danio rerio [1]) is on record?
Answer: Active

Question: Which survival at 5 µM (Danio rerio [2]) does the source give for `C[C@@]12CC[C@@H]3[C@@](CC[C@H]4[C@@]3(C)CCC[C@@]4(C)C(=O)N3CCN(C(=O)c4ccccc4C(=O)O)CC3)(CC1=O)C2` here?
Answer: 50%

Question: And the solubility at 24 h [11]?
Answer: 0.94 mg/mL (≈ 1760 µM)

Question: And the Survival (Danio rerio [10])?
Answer: 50%

Question: And the Activity [7]?
Answer: Non-Toxic

Question: Which Activity (Danio rerio [1]) does the source give for `CC(C)(CC(=O)O)C(=O)N1CCN(C(=O)[C@]2(C)CCC[C@@]3(C)[C@@H]4CC[C@@]5(C)C[C@]4(CC[C@@H]32)CC5=O)CC1` here?
Answer: Active

Question: With `CC(C)(C)OC(=O)N1CCN(C(=O)[C@]2(C)CCC[C@@]3(C)[C@@H]4CC[C@@]5(C)C[C@]4(CC[C@@H]32)CC5=O)CC1` as the compound, how does the Activity (Danio rerio [1]) read?
Answer: Active

Question: For `C[C@@]12CC[C@@H]3[C@@](CC[C@H]4[C@@]3(C)CCC[C@@]4(C)C(=O)N3CCN(C(=O)CCC(=O)O)CC3)(CC1=O)C2`, which survival at 5 µM (Danio rerio [2]) is on record?
Answer: 50%

Question: What about the Activity (Danio rerio [1]) of the same compound?
Answer: Active

Question: And the survival at 15 µM (Danio rerio [9])?
Answer: 50%

Question: With `C[C@@]12CC[C@@H]3[C@@](CC[C@H]4[C@@]3(C)CCC[C@@]4(C)C(=O)N3CCN(C(=O)CCCC(=O)O)CC3)(CC1=O)C2` as the compound, how does the Activity (Danio rerio [1]) read?
Answer: Active
